The values that follow are results of earlier work, collected in patent publication US7872019B2, “Polymorphs and amorphous form of (S)-(+)-clopidogrel bisulfate” (Cadila Healthcare Limited, priority 2003, dated 2011).

One series deals with platelet aggregation. The note with it: comparison of the two enantiomers, in words.
The conditions of series [1]: comparison of the two enantiomers, in words.

For `COC(=O)[C@@H](c1ccccc1Cl)N1CCc2sccc2C1` (single isomer, unassigned) [levorotatory enantiomer of (I)], the antiagregant platelet activity result in the series with platelet aggregation is “less active”. Moreover, in series [1], the tolerance result is “less tolerated”.
In the case of `COC(=O)[C@H](c1ccccc1Cl)N1CCc2sccc2C1` [dextrorotatory enantiomer of formula (I) of Clopidogrel], the antiagregant platelet activity result in the series with platelet aggregation is “excellent antiagregant platelet activity”.
